Where “and” joins values, the source holds several entries; their conditions need not be identical. Identical values can stand only once. HELM strings list units from the 5' end as sugar, base in round brackets, then linkage (d deoxyribose, r ribose, m 2'-O-methyl, p phosphodiester). Methylation of C is not given here. [moe] = 2'-O-(2-methoxyethyl) (MOE); [cEt] = constrained ethyl (cEt); [sp] = phosphorothioate linkage
Target: HBV
Conditions: ASO

| Substance | target mRNA inhibition (HepG2, 0.07 µM) | further results |
| --- | --- | --- |
| RNA1{[moe](G)[sp].[moe](A)[sp].[moe](G)[sp].[moe](A)[sp].[moe](A)[sp].[moe](G)[sp].d(T)[sp].d(C)[sp].d(C)[sp].d(A)[sp].d(C)[sp].d(C)[sp].d(A)[sp].d(C)[sp].d(G)[sp].[moe](A)[sp].[moe](G)}$$$$V2.0 | 27% and 23% | – |
| RNA1{[moe](C)[sp].[moe](G)[sp].[moe](G)[sp].d(G)[sp].d(C)[sp].d(A)[sp].d(A)[sp].d(C)[sp].d(A)[sp].d(T)[sp].d(A)[sp].d(C)[sp].d(C)[sp].[cEt](T)[sp].[cEt](T)[sp].[cEt](G)}$$$$V2.0 | 56% and 65% | – |
| RNA1{[moe](T)[sp].[moe](G)[sp].[moe](A)[sp].d(G)[sp].d(G)[sp].d(C)[sp].d(A)[sp].d(T)[sp].d(A)[sp].d(G)[sp].d(C)[sp].d(A)[sp].d(G)[sp].[cEt](C)[sp].[cEt](A)[sp].[cEt](G)}$$$$V2.0 | 59% and 61% | – |
| RNA1{[moe](A)[sp].[cEt](A)[sp].d(C)[sp].d(T)[sp].d(G)[sp].d(G)[sp].d(A)[sp].d(G)[sp].d(C)[sp].d(C)[sp].d(A)[sp].d(C)[sp].[cEt](C)[sp].[moe](A)[sp].[cEt](G)[sp].[moe](C)}$$$$V2.0 | 65% and 53% | – |
| RNA1{[moe](G)[sp].[moe](A)[sp].[moe](T)[sp].[moe](G)[sp].[moe](A)[sp].d(G)[sp].d(G)[sp].d(C)[sp].d(A)[sp].d(T)[sp].d(A)[sp].d(G)[sp].d(C)[sp].d(A)[sp].[moe](G)[sp].[moe](C)[sp].[moe](A)}$$$$V2.0 | 46% and 21% | – |
| RNA1{[moe](C)[sp].[cEt](C)[sp].[cEt](G)[sp].d(C)[sp].d(A)[sp].d(G)[sp].d(T)[sp].d(A)[sp].d(T)[sp].d(G)[sp].d(G)[sp].d(A)[sp].d(T)[sp].[cEt](C)[sp].[cEt](G)[sp].[moe](G)}$$$$V2.0 | 63% and 52% | – |
| RNA1{[moe](A)[sp].[moe](T)[sp].[moe](G)[sp].[moe](A)[sp].d(G)[sp].d(G)[sp].d(C)[sp].d(A)[sp].d(T)[sp].d(A)[sp].d(G)[sp].d(C)[sp].d(A)[sp].[moe](G)[sp].[moe](C)[sp].[moe](A)[sp].[moe](G)}$$$$V2.0 | 0% | – |
| RNA1{[moe](A)[sp].[moe](A)[sp].[moe](G)[sp].[moe](C)[sp].[moe](G)[sp].d(A)[sp].d(A)[sp].d(G)[sp].d(T)[sp].d(G)[sp].d(C)[sp].d(A)[sp].d(C)[sp].d(A)[sp].[moe](C)[sp].[moe](G)}$$$$V2.0 | 71% and 68% | – |
| RNA1{[moe](C)[sp].[moe](G)[sp].[moe](C)[sp].[moe](A)[sp].[moe](G)[sp].d(T)[sp].d(A)[sp].d(T)[sp].d(G)[sp].d(G)[sp].d(A)[sp].d(T)[sp].d(C)[sp].d(G)[sp].[moe](G)[sp].[moe](C)}$$$$V2.0 | 64% and 57% | – |
| RNA1{[moe](G)[sp].[moe](G)[sp].[moe](C)[sp].[moe](A)[sp].[moe](T)[sp].d(A)[sp].d(G)[sp].d(C)[sp].d(A)[sp].d(G)[sp].d(C)[sp].d(A)[sp].d(G)[sp].d(G)[sp].[moe](A)[sp].[moe](T)[sp].[moe](G)}$$$$V2.0 | 0% | – |
| RNA1{[moe](G)[sp].[moe](A)[sp].[moe](G)[sp].[moe](G)[sp].[moe](T)[sp].d(G)[sp].d(A)[sp].d(A)[sp].d(G)[sp].d(C)[sp].d(G)[sp].d(A)[sp].d(A)[sp].d(G)[sp].[moe](T)[sp].[moe](G)}$$$$V2.0 | 46% and 39% | – |
| RNA1{[moe](A)[sp].[cEt](C)[sp].d(C)[sp].d(A)[sp].d(A)[sp].d(T)[sp].d(T)[sp].d(T)[sp].d(A)[sp].d(T)[sp].d(G)[sp].d(C)[sp].[cEt](C)[sp].[moe](T)[sp].[cEt](A)[sp].[moe](C)}$$$$V2.0 | 40% and 51% | – |
| RNA1{[moe](A)[sp].[moe](G)[sp].[moe](A)[sp].d(G)[sp].d(G)[sp].d(T)[sp].d(G)[sp].d(A)[sp].d(A)[sp].d(G)[sp].d(C)[sp].d(G)[sp].d(A)[sp].[cEt](A)[sp].[cEt](G)[sp].[cEt](T)}$$$$V2.0 | 69% and 74% | – |
| RNA1{[moe](A)[sp].[moe](A)[sp].[moe](C)[sp].[moe](C)[sp].d(A)[sp].d(C)[sp].d(T)[sp].d(G)[sp].d(A)[sp].d(A)[sp].d(C)[sp].d(A)[sp].d(A)[sp].[moe](A)[sp].[moe](T)[sp].[moe](G)[sp].[moe](G)}$$$$V2.0 | 57% and 55% | – |
| RNA1{[moe](A)[sp].[cEt](G)[sp].[cEt](G)[sp].d(A)[sp].d(G)[sp].d(T)[sp].d(T)[sp].d(C)[sp].d(C)[sp].d(G)[sp].d(C)[sp].d(A)[sp].d(G)[sp].[cEt](T)[sp].[cEt](A)[sp].[moe](T)}$$$$V2.0 | 89% and 79% | target mRNA inhibition (HepG2, 0.0092593 µM): 4%; target mRNA inhibition (HepG2, 0.0277778 µM): 35%; target mRNA inhibition (HepG2, 0.0833333 µM): 70%; target mRNA inhibition (HepG2, 0.25 µM): 87% |
| RNA1{[moe](A)[sp].[moe](C)[sp].[moe](C)[sp].[moe](A)[sp].[moe](A)[sp].d(T)[sp].d(T)[sp].d(T)[sp].d(A)[sp].d(T)[sp].d(G)[sp].d(C)[sp].d(C)[sp].d(T)[sp].[moe](A)[sp].[moe](C)[sp].[moe](A)}$$$$V2.0 | 33% and 18% | – |

| Substance | target mRNA inhibition (HepG2, 0.07 µM) | further results |
| --- | --- | --- |
| RNA1{[moe](A)[sp].[moe](G)[sp].[moe](G)[sp].[moe](C)[sp].[moe](A)[sp].[moe](T)[sp].d(A)[sp].d(G)[sp].d(C)[sp].d(A)[sp].d(G)[sp].d(C)[sp].d(A)[sp].d(G)[sp].d(G)[sp].[moe](A)[sp].[moe](T)}$$$$V2.0 | 71% and 50% | – |
| RNA1{[moe](A)[sp].[moe](C)[sp].d(C)[sp].d(A)[sp].d(A)[sp].d(T)[sp].d(T)[sp].d(T)[sp].d(A)[sp].d(T)[sp].d(G)[sp].[moe](C)[sp].[moe](C)[sp].[moe](T)[sp].[moe](A)[sp].[moe](C)[sp].[moe](A)}$$$$V2.0 | 54% and 47% | – |
| RNA1{[moe](G)[sp].[moe](A)[sp].[moe](A)[sp].[moe](C)[sp].[moe](T)[sp].d(G)[sp].d(G)[sp].d(A)[sp].d(G)[sp].d(C)[sp].d(C)[sp].d(A)[sp].d(C)[sp].d(C)[sp].[moe](A)[sp].[moe](G)[sp].[moe](C)}$$$$V2.0 | 41% and 50% | – |
| RNA1{[moe](C)[sp].[moe](G)[sp].[moe](A)[sp].[moe](A)[sp].[moe](C)[sp].[moe](C)[sp].d(A)[sp].d(C)[sp].d(T)[sp].d(G)[sp].d(A)[sp].d(A)[sp].d(C)[sp].d(A)[sp].d(A)[sp].[moe](A)[sp].[moe](T)}$$$$V2.0 | 0% and 20% | – |
| RNA1{[moe](A)[sp].[cEt](C)[sp].[cEt](A)[sp].d(A)[sp].d(A)[sp].d(T)[sp].d(G)[sp].d(G)[sp].d(C)[sp].d(A)[sp].d(C)[sp].d(T)[sp].d(A)[sp].[cEt](G)[sp].[cEt](T)[sp].[moe](A)}$$$$V2.0 | 67% and 61% | – |
| RNA1{[moe](C)[sp].[moe](G)[sp].[moe](A)[sp].[moe](A)[sp].d(C)[sp].d(C)[sp].d(A)[sp].d(C)[sp].d(T)[sp].d(G)[sp].d(A)[sp].d(A)[sp].d(C)[sp].[moe](A)[sp].[moe](A)[sp].[moe](A)[sp].[moe](T)}$$$$V2.0 | 48% and 41% | – |
| RNA1{[moe](C)[sp].[moe](T)[sp].[moe](G)[sp].d(G)[sp].d(A)[sp].d(G)[sp].d(C)[sp].d(C)[sp].d(A)[sp].d(C)[sp].d(C)[sp].d(A)[sp].[moe](G)[sp].[moe](C)[sp].[moe](A)[sp].[moe](G)[sp].[moe](G)}$$$$V2.0 | 79% and 64% | – |
| RNA1{[moe](C)[sp].[cEt](C)[sp].[cEt](A)[sp].d(C)[sp].d(A)[sp].d(T)[sp].d(C)[sp].d(A)[sp].d(T)[sp].d(C)[sp].d(C)[sp].d(A)[sp].d(T)[sp].[cEt](A)[sp].[cEt](T)[sp].[moe](A)}$$$$V2.0 | 60% and 50% | – |
| RNA1{[moe](C)[sp].[moe](A)[sp].[moe](A)[sp].[moe](T)[sp].[moe](T)[sp].d(T)[sp].d(A)[sp].d(T)[sp].d(G)[sp].d(C)[sp].d(C)[sp].d(T)[sp].d(A)[sp].d(C)[sp].[moe](A)[sp].[moe](G)[sp].[moe](C)}$$$$V2.0 | 30% and 13% | – |
| RNA1{[moe](C)[sp].[moe](T)[sp].[moe](A)[sp].d(G)[sp].d(T)[sp].d(A)[sp].d(A)[sp].d(A)[sp].d(C)[sp].d(T)[sp].d(G)[sp].d(A)[sp].[moe](G)[sp].[moe](C)[sp].[moe](C)[sp].[moe](A)}$$$$V2.0 | 66% and 60% | – |
| RNA1{[moe](G)[sp].[moe](C)[sp].[moe](A)[sp].d(G)[sp].d(A)[sp].d(G)[sp].d(G)[sp].d(T)[sp].d(G)[sp].d(A)[sp].d(A)[sp].d(G)[sp].d(C)[sp].[cEt](G)[sp].[cEt](A)[sp].[cEt](A)}$$$$V2.0 | 71% and 50% | – |
| RNA1{[moe](T)[sp].[moe](G)[sp].[moe](A)[sp].[moe](G)[sp].[moe](G)[sp].d(C)[sp].d(A)[sp].d(T)[sp].d(A)[sp].d(G)[sp].d(C)[sp].d(A)[sp].d(G)[sp].d(C)[sp].[moe](A)[sp].[moe](G)}$$$$V2.0 | 48% and 51% | – |
| RNA1{[moe](G)[sp].[cEt](A)[sp].d(A)[sp].d(G)[sp].d(T)[sp].d(C)[sp].d(C)[sp].d(A)[sp].d(C)[sp].d(C)[sp].d(A)[sp].d(C)[sp].[cEt](G)[sp].[moe](A)[sp].[cEt](G)[sp].[moe](T)}$$$$V2.0 | 43% and 50% | – |
| RNA1{[moe](A)[sp].[moe](T)[sp].[moe](T)[sp].[cEt](T)[sp].d(A)[sp].d(T)[sp].d(G)[sp].d(C)[sp].d(C)[sp].d(T)[sp].d(A)[sp].d(C)[sp].d(A)[sp].[cEt](G)[sp].[moe](C)[sp].[moe](C)[sp].[moe](T)}$$$$V2.0 | – | target mRNA inhibition (HepG2, 0.009375 µM): 32%; target mRNA inhibition (HepG2, 0.01875 µM): 32%; target mRNA inhibition (HepG2, 0.0375 µM): 42%; target mRNA inhibition (HepG2, 0.075 µM): 62%; target mRNA inhibition (HepG2, 0.15 µM): 76%; target mRNA inhibition (HepG2, 0.3 µM): 80% |
| RNA1{[moe](A)[sp].[moe](T)[sp].[moe](G)[sp].d(A)[sp].d(G)[sp].d(G)[sp].d(C)[sp].d(A)[sp].d(T)[sp].d(A)[sp].d(G)[sp].d(C)[sp].d(A)[sp].[cEt](G)[sp].[cEt](C)[sp].[cEt](A)}$$$$V2.0 | 71% and 73% | – |
